# Results published in patent US6867320B2, “Substituted phenylalkanoic acid derivatives and use thereof” (Asahi Kasei Pharma Corporation, priority 2002, dated 2005).
# Test system: PGE2 production from IL-1β-stimulated MG-63 cells
# Test: Suppressing action on PGE2 production from IL-1β-stimulated MG-63 cells
# Assay type: cell-based
# Conditions: Homo sapiens, IL-1β 1 ng/ml, 18 hours, read-out: PGE2 production suppression ratio
# Description: 1. Suppressing Action on PGE2 Production from IL-1β-Stimulated MG-63 Cells (1) Method for Measurement
# An action of suppressing PGE2 production caused by interleukin (IL) 1β as an inflammatory stimulant was studied by the following method. Cells of MG-63, which is a human osteosarcoma cell line (purchased from Dainippon Pharmaceutical), were suspended in EMEM medium (GIBCO) containing 10% fetal bovine serum (BioFluid), and then inoculated to each well of 96-well culture plate at a density of 2×10^4 cells/well and cultured overnight. The medium was changed to EMEM medium containing 0.5% fetal bovine serum, and then a test compound was added with each well. Human interleukin-1β (ENDOGEN) was further added as an inflammatory stimulant at a final concentration of 1 ng/ml. The cells were further cultured for 18 hours. The culture supernatant was collected, and the PGE2 concentration in the culture supernatant was measured by using EIA kit (CAYMAN). By using a well which was not added with the stimulant as a negative control and a well which was added only with the stimulant as a positive control, suppression ratios on PGE2 production were calculated from produced amounts of PGE2 in the well added with the test compound using the following equation. PGE2 production suppression ratio=[1−(C−B)/(A−B)]×100 • A: PGE2 production amount of positive control • B: PGE2 production amount of negative control • C: PGE2 production amount in well added with test compound
row,SMILES,inhibition at 0.4 µM [%]
1,"O=C(O)CCc1ccc(OCC2CCCCC2)c(-c2ccc3cc(OCC(=O)O)ccc3c2)c1 [Compound 072, 3-[3-(6-carboxymethyloxynaphthalen-2-yl)-4-cyclohexylmethyloxyphenyl]propionic acid]",≥ 50
2,"O=C(O)CCc1cc(O)c(OCC2CCCC2)c(-c2ccc3ccccc3c2)c1 [Compound 568, 3-[4-cyclopentylmethyloxy-3-hydroxy-5-(naphthalen-2-yl)phenyl]propionic acid]",≥ 50
3,"CCCCOc1ccc(CCC(=O)O)cc1-c1ccc2[nH]ccc2c1 [Compound 130, 3-[4-butyloxy-3-(1H-indol-5-yl)phenyl]propionic acid]",≥ 50
4,"O=C(O)CCc1ccc(OCC2CCCCC2)c(-c2cccc3ccccc23)c1 [Compound 070, 3-[4-cyclohexylmethyloxy-3-(naphthalen-1-yl)phenyl]propionic acid]",≥ 50
5,"COc1cc(CCC(=O)O)cc(-c2ccc3[nH]ccc3c2)c1OC1CCCC1 [Compound 578, 3-[4-cyclopentyloxy-3-(1H-indol-5-yl)-5-methoxyphenyl]propionic acid]",≥ 50
6,"CC(=O)Nc1ccc2cc(-c3cc(CCC(=O)O)ccc3OCC3CCCC3)ccc2c1 [Compound 077, 3-[3-(6-acetylaminonaphthalen-2-yl)-4-cyclopentylmethyloxy-phenyl]propionic acid]",≥ 50
7,"O=C(O)Cc1ccc(OCC2CCCCC2)c(-c2ccc3ccccc3c2)c1 [Compound 096, 4-cyclohexylmethyloxy-3-(naphthalen-2-yl)phenylacetic acid]",≥ 50
8,"Cc1nc2ccc(-c3cc(CCC(=O)O)ccc3OCC3CCCC3)cc2s1 [Compound 308, 3-[4-cyclopentylmethyloxy-3-(2-methylbenzothiazol-6-yl)phenyl]propionic acid]",≥ 50
9,"Cc1cc(CCC(=O)O)cc(-c2ccc3ccccc3c2)c1OC1CCCC1 [Compound 570, 3-[4-cyclopentyloxy-3-methyl-5-(naphthalen-2-yl)phenyl]propionic acid]",≥ 50
10,"CCCOc1ccc(CCC(=O)O)cc1-c1ccc2[nH]ccc2c1 [Compound 588, 3-[4-n-propyloxy-3-(1H-indol-5-yl)phenyl]propionic acid]",≥ 50
11,"Cn1ccc2c(-c3cc(CCC(=O)O)ccc3OCC3CCCC3)cccc21 [Compound 122, 3-[4-cyclopentylmethyloxy-3-(1-methyl-1H-indol-4-yl)phenyl]propionic acid]",≥ 50
12,"CN(C)C(=O)COc1ccc2cc(-c3cc(CCC(=O)O)ccc3OCC3CCCCC3)ccc2c1 [Compound 074, 3-{4-cyclohexylmethyloxy-3-[6-(N,N-dimethylcarbamoylmethyloxy)-naphthalen-2-yl]phenyl}propionic acid]",≥ 50
13,"CN(C)S(=O)(=O)c1ccc2cc(-c3cc(CCC(=O)O)ccc3OCC3CCCC3)ccc2c1 [Compound 028, 3-{4-cyclopentylmethyloxy-3-[6-(N,N-dimethylsulfamoyl)naphthalen-2-yl]phenyl}propionic acid]",≥ 50
14,"Cc1[nH]c2ccc(-c3cc(CCC(=O)O)ccc3OCC3CCCCC3)cc2c1C [Compound 273, 3-[4-cyclohexylmethyloxy-3-(2,3-dimethyl-1H-indol-5-yl)phenyl]propionic acid]",≥ 50
15,"CNc1nc2ccc(-c3cc(CCC(=O)O)ccc3OCC3CCCC3)cc2s1 [Compound 297, 3-[4-cyclopentylmethyloxy-3-(2-methylaminobenzothiazol-6-yl)phenyl]propionic acid]",≥ 50
16,"O=C(O)CCc1ccc(OCC2CCCCC2)c(-c2ccc3[nH]c(=O)ccc3c2)c1 [Compound 321, 3-[4-cyclohexylmethyloxy-3-(2-oxo-1,2-dihydroquinolin-6-yl)-phenyl]propionic acid]",≥ 50
17,"CC(=O)c1cn(C)c2ccc(-c3cc(CCC(=O)O)ccc3OCC3CCCC3)cc12 [Compound 259, 3-[3-(3-acetyl-1-methyl-1H-indol-5-yl)-4-cyclopentylmethyloxyphenyl]propionic acid]",≥ 50
18,"CCn1ccc2cc(-c3cc(CCC(=O)O)cc(OC)c3OC3CCCC3)ccc21 [Compound 582, 3-[4-cyclopentyloxy-3-(1-ethyl-1H-indol-5-yl)-5-methoxyphenyl]propionic acid]",≥ 50
19,"CS(=O)(=O)Nc1ccc2cc(-c3cc(CCC(=O)O)ccc3OCC3CCCC3)ccc2c1 [Compound 085, 3-[4-cyclopentylmethyloxy-3-(6-methanesulfonylaminonaphthalen-2-yl)phenyl]propionic acid]",≥ 50

row,SMILES,inhibition at 0.4 µM [%]
1,"COc1nc2ccc(-c3cc(CCC(=O)O)ccc3OCC3CCCC3)cc2s1 [Compound 306, 3-[4-cyclopentylmethyloxy-3-(2-methoxybenzothiazol-6-yl)phenyl]propionic acid]",≥ 50
2,"Cn1cc(C=O)c2cc(-c3cc(CCC(=O)O)ccc3OCC3CCCC3)ccc21 [Compound 255, 3-[4-cyclopentylmethyloxy-3-(3-formyl-1-methyl-1H-indol-5-yl)phenyl]propionic acid]",≥ 50
3,"O=C(O)CCc1ccc(OCC2CCCCC2)c(-c2ccc3cc(OCCO)ccc3c2)c1 [Compound 071, 3-{4-cyclohexylmethyloxy-3-[6-(2-hydroxyethyloxy)naphthalen-2-yl]phenyl}propionic acid]",≥ 50
4,"Cc1cn(C)c2ccc(-c3cc(CCC(=O)O)ccc3OCC3CCCC3)cc12 [Compound 252, 3-[4-cyclopentylmethyloxy-3-(1,3-dimethyl-1H-indol-5-yl)phenyl]propionic acid]",≥ 50
5,"CC(C)(C)c1ccc(COc2ccc(CCC(=O)O)cc2-c2ccc3[nH]ccc3c2)cc1 [Compound 327, 3-[4-(4-t-butylphenylmethyloxy)-3-(1H-indol-5-yl)phenyl]propionic acid]",≥ 50
6,"O=C(O)CCc1cc(Cl)c(OCC2CCCC2)c(-c2ccc3ccccc3c2)c1 [Compound 092, 3-[3-chloro-4-cyclopentylmethyloxy-5-(naphthalen-2-yl)phenyl]propionic acid]",≥ 50
7,"O=C(O)CCc1ccc(OCc2cccs2)c(-c2ccc3[nH]ccc3c2)c1 [Compound 198, 3-{3-(1H-indol-5-yl)-4-[(thiophen-2-yl)methyloxy]phenyl}propionic acid]",≥ 50
8,"CCc1ccc(CCOc2ccc(CCC(=O)O)cc2-c2ccc3ccccc3c2)nc1 [Compound 062, 3-{4-[2-(5-ethylpyridin-2-yl)ethyloxy]-3-(naphthalen-2-yl)phenyl}propionic acid]",≥ 50
9,"NS(=O)(=O)c1ccc2cc(-c3cc(CCC(=O)O)ccc3OCC3CCCC3)ccc2c1 [Compound 024, 3-[4-cyclopentylmethyloxy-3-(6-sulfamoylnaphthalen-2-yl)phenyl]propionic acid]",≥ 50
10,"Cc1nc2cc(-c3cc(CCC(=O)O)ccc3OCC3CCCC3)ccc2s1 [Compound 283, 3-[4-cyclopentylmethyloxy-3-(2-methylbenzothiazol-5-yl)phenyl]propionic acid]",≥ 50
11,"O=C(O)CCc1ccc(OCc2ccccc2)c(-c2ccc3ccccc3c2)c1 [Compound 323, 3-[4-benzyloxy-3-(naphthalen-2-yl)phenyl]propionic acid]",≥ 50
12,"O=C(O)CCc1ccc(OCc2ccccc2C(F)(F)F)c(-c2ccc3[nH]ccc3c2)c1 [Compound 170, 3-{3-(1H-indol-5-yl)-4-[2-(trifluoromethyl)phenylmethyloxy]-phenyl}propionic acid]",≥ 50
13,"O=C(O)CCc1ccc(OCc2cccc(F)c2)c(-c2ccc3[nH]ccc3c2)c1 [Compound 144, 3-[4-(3-fluorophenylmethyloxy)-3-(1H-indol-5-yl)phenyl]propionic acid]",≥ 50
14,"Cc1oc(-c2ccccc2)nc1CCOc1ccc(CCC(=O)O)cc1-c1ccc2ccccc2c1 [Compound 064, 3-{4-[2-(5-methyl-2-phenyloxazol-4-yl)ethyloxy]-3-(naphthalen-2-yl)phenyl}propionic acid]",≥ 50
15,"O=C(O)CCc1ccc(OCc2cccnc2)c(-c2ccc3ccccc3c2)c1 [Compound 060, 3-{3-(naphthalen-2-yl)-4-[(pyridin-3-yl)methyloxy]phenyl}propionic acid]",≥ 50
16,"COC(=O)CCc1cc(N)c(OCC2CCCC2)c(-c2ccc3ccccc3c2)c1 [Compound 094, methyl 3-[3-amino-4-cyclopentylmethyloxy-5-(naphthalen-2-yl)phenyl]propionate]",≥ 50
17,"O=C(O)CCc1ccc(OCC2CCCCC2)c(-c2ccc3cc[nH]c3c2)c1 [Compound 128, 3-[4-cyclohexylmethyloxy-3-(1H-indol-6-yl)phenyl]propionic acid]",≥ 50
18,"Cc1cccc(COc2ccc(CCC(=O)O)cc2-c2ccc3[nH]ccc3c2)c1 [Compound 136, 3-[3-(1H-indol-5-yl)-4-(3-methylphenylmethyloxy)phenyl]propionic acid]",≥ 50
19,"Nc1cc(CCC(=O)O)cc(-c2ccc3ccccc3c2)c1OC1CCCC1 [Compound 333, 3-[3-amino-4-cyclopentyloxy-5-(naphthalen-2-yl)phenyl]propionic acid]",≥ 50
